Patent US8802597B2, “Herbicidal pyrimidines” (E I du Pont de Nemours and Company, priority 2003, dated 2014)

Tests used:
Assay type in all cases: in vivo
[1] = system: Surinam grass (Brachiaria decumbens); assay: Test B pre/postemergence
Method in brief: (§1)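 Visual injury scored 0 (no effect) to 100 (complete control) versus untreated controls after 13 to 15 days in greenhouse. Treatments were pre- or postemergence sprays of surfactant-containing solvent formulations; postemergence plants at 1- to 4-leaf stage, 2 to 18 cm.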

[2] = system: barnyardgrass (Echinochloa crus-galli); assay: Test B pre/postemergence
Method in brief: as §1

[3] = system: cocklebur (Xanthium strumarium); assay: Test B pre/postemergence
Method in brief: as §1

corn (Zea mays) = assay: Test B pre/postemergence
Method in brief: as §1

[4] = system: crabgrass (Digitaria sanguinalis); assay: Test B pre/postemergence
Method in brief: as §1

[5] = system: giant foxtail (Setaria faberii); assay: Test B pre/postemergence
Method in brief: as §1

[6] = system: lambsquarters (Chenopodium album); assay: Test B pre/postemergence
Method in brief: as §1

[7] = system: morningglory (Ipomoea coccinea); assay: Test B pre/postemergence
Method in brief: as §1

[8] = system: pigweed (Amaranthus retroflexus); assay: Test B pre/postemergence
Method in brief: as §1

[9] = system: velvetleaf (Abutilon theophrasti); assay: Test B pre/postemergence
Method in brief: as §1

[10] = system: wheat (Triticum aestivum); assay: Test B pre/postemergence
Method in brief: as §1

[11] = system: blackgrass (Alopecurus myosuroides); assay: Test B postemergence; settings: for Blackgrass plant response rating: 125 g ai/ha, scale 0 to 100 (0 no effect, 100 complete control); for Plant response rating, Blackgrass: 500 g ai/ha, scale 0 to 100
Method in brief: as §1

wild oat (Avena fatua) = assay: Test B postemergence; settings: for Oat, Wild plant response rating: 125 g ai/ha, scale 0 to 100 (0 no effect, 100 complete control); for Plant response rating, Oat, Wild: 500 g ai/ha, scale 0 to 100
Method in brief: as §1

[12] = system: barnyardgrass (Echinochloa crus-galli); assay: Test B flooded paddy test; settings: Flood, 1000 g ai/ha; scale 0 (no effect) to 100 (complete control)
Method in brief: (§2)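 Plants were grown to the 2-leaf stage before treatment, then kept in a greenhouse for 13 to 15 days. Injury was rated visually against untreated controls on a 0 to 100 scale, where 0 is no effect and 100 is complete control.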

[13] = system: duck salad (Heteranthera limosa); assay: Test B flooded paddy test; settings: Flood, 1000 g ai/ha; scale 0 to 100
Method in brief: as §2

rice (Oryza sativa) = assay: Test B flooded paddy test; settings: Flood, 1000 g ai/ha; scale 0 to 100
Method in brief: as §2

[14] = system: umbrella sedge (Cyperus difformis); assay: Test B flooded paddy test; settings: Flood, 1000 g ai/ha; scale 0 to 100
Method in brief: as §2

[15] = Postemergence, 125 g ai/ha, scale 0 to 100 (0 no effect, 100 complete control)
[16] = Postemergence, 500 g ai/ha, scale 0 to 100
[17] = Preemergence, 125 g ai/ha, scale 0 to 100 (0 no effect, 100 complete control)
[18] = Preemergence, 500 g ai/ha, scale 0 to 100 (0 no effect, 100 complete control)

SMILES: CCCOC(=O)c1nc(C2CC2)nc(N)c1Br [Compound 15]
- Surinam Grass plant response rating [1, 15]: 60
- Plant response rating, Surinam Grass [1, 16]: 90
- Plant response rating, Surinam Grass [1, 17]: 30
- Surinam Grass plant response rating [1, 18]: 90
- Barnyardgrass plant response rating [2, 15]: 90
- Plant response rating, Barnyardgrass [2, 16]: 90
- Plant response rating, Barnyardgrass [2, 17]: 40
- Barnyardgrass plant response rating [2, 18]: 90
- Cocklebur plant response rating [3, 15]: 100
- Plant response rating, Cocklebur [3, 16]: 100
- Plant response rating, Cocklebur [3, 17]: 70
- Cocklebur plant response rating [3, 18]: 100
- Corn plant response rating (corn (Zea mays); [15]): 50
- Plant response rating, Corn (corn (Zea mays); [16]): 80
- Plant response rating, Corn (corn (Zea mays); [17]): 20
- Corn plant response rating (corn (Zea mays); [18]): 80
- Crabgrass plant response rating [4, 15]: 30
- Plant response rating, Crabgrass [4, 16]: 60
- Plant response rating, Crabgrass [4, 17]: 70
- Crabgrass plant response rating [4, 18]: 90
- Foxtail, Giant plant response rating [5, 15]: 40
- Plant response rating, Foxtail, Giant [5, 16]: 70
- Plant response rating, Foxtail, Giant [5, 17]: 40
- Foxtail, Giant plant response rating [5, 18]: 80
- Lambsquarters plant response rating [6, 15]: 100
- Plant response rating, Lambsquarters [6, 16]: 100
- Plant response rating, Lambsquarters [6, 17]: 90
- Lambsquarters plant response rating [6, 18]: 100
- Morningglory plant response rating [7, 15]: 100
- Plant response rating, Morningglory [7, 16]: 100
- Plant response rating, Morningglory [7, 17]: 70
- Morningglory plant response rating [7, 18]: 100
- Pigweed plant response rating [8, 15]: 80
- Plant response rating, Pigweed [8, 16]: 100
- Plant response rating, Pigweed [8, 17]: 90
- Pigweed plant response rating [8, 18]: 100
- Velvetleaf plant response rating [9, 15]: 80
- Plant response rating, Velvetleaf [9, 16]: 90
- Plant response rating, Velvetleaf [9, 17]: 70
- Velvetleaf plant response rating [9, 18]: 100
- Wheat plant response rating [10, 15]: 40
- Plant response rating, Wheat [10, 16]: 70
- Plant response rating, Wheat [10, 17]: 40
- Wheat plant response rating [10, 18]: 60
- Blackgrass plant response rating [11]: 70
- Plant response rating, Blackgrass [11]: 80
- Oat, Wild plant response rating (wild oat (Avena fatua)): 10
- Plant response rating, Oat, Wild (wild oat (Avena fatua)): 70
- Plant response rating, Barnyardgrass [12]: 90
- Plant response rating, Ducksalad [13]: 80
- Plant response rating, Rice (rice (Oryza sativa)): 70
- Plant response rating, Sedge, Umbrella [14]: 70

SMILES: COC(=O)c1nc(C2CC2C)nc(N)c1Br (stereo not shown) [Compound 28]
- Surinam Grass plant response rating [1, 15]: 10
- Plant response rating, Surinam Grass [1, 16]: 50
- Surinam Grass plant response rating [1, 18]: 60
- Barnyardgrass plant response rating [2, 15]: 20
- Plant response rating, Barnyardgrass [2, 16]: 50
- Plant response rating, Barnyardgrass [2, 17]: 10
- Barnyardgrass plant response rating [2, 18]: 30
- Cocklebur plant response rating [3, 15]: 90
- Plant response rating, Cocklebur [3, 16]: 100
- Plant response rating, Cocklebur [3, 17]: 80
- Cocklebur plant response rating [3, 18]: 90
- Corn plant response rating (corn (Zea mays); [15]): 0
- Plant response rating, Corn (corn (Zea mays); [16]): 0
- Plant response rating, Corn (corn (Zea mays); [17]): 0
- Corn plant response rating (corn (Zea mays); [18]): 0
- Crabgrass plant response rating [4, 15]: 30
- Plant response rating, Crabgrass [4, 16]: 50
- Plant response rating, Crabgrass [4, 17]: 70
- Crabgrass plant response rating [4, 18]: 80
- Foxtail, Giant plant response rating [5, 15]: 20
- Plant response rating, Foxtail, Giant [5, 16]: 40
- Plant response rating, Foxtail, Giant [5, 17]: 30
- Foxtail, Giant plant response rating [5, 18]: 50
- Lambsquarters plant response rating [6, 15]: 90
- Plant response rating, Lambsquarters [6, 16]: 90
- Plant response rating, Lambsquarters [6, 17]: 80
- Lambsquarters plant response rating [6, 18]: 100
- Morningglory plant response rating [7, 15]: 90
- Plant response rating, Morningglory [7, 16]: 90
- Plant response rating, Morningglory [7, 17]: 80
- Morningglory plant response rating [7, 18]: 90
- Pigweed plant response rating [8, 15]: 80
- Plant response rating, Pigweed [8, 16]: 90
- Plant response rating, Pigweed [8, 17]: 80
- Pigweed plant response rating [8, 18]: 90
- Velvetleaf plant response rating [9, 15]: 70
- Plant response rating, Velvetleaf [9, 16]: 90
- Plant response rating, Velvetleaf [9, 17]: 80
- Velvetleaf plant response rating [9, 18]: 90
- Wheat plant response rating [10, 15]: 0
- Plant response rating, Wheat [10, 16]: 10
- Plant response rating, Wheat [10, 17]: 10
- Wheat plant response rating [10, 18]: 40
- Blackgrass plant response rating [11]: 10
- Plant response rating, Blackgrass [11]: 30
- Oat, Wild plant response rating (wild oat (Avena fatua)): 0
- Plant response rating, Oat, Wild (wild oat (Avena fatua)): 10
- Plant response rating, Barnyardgrass [12]: 0
- Plant response rating, Ducksalad [13]: 30
- Plant response rating, Rice (rice (Oryza sativa)): 0
- Plant response rating, Sedge, Umbrella [14]: 0

SMILES: CCOC(=O)Cc1nc(C2CC2)nc(N)c1Br [Compound 12]
- Surinam Grass plant response rating [1, 15]: 0
- Plant response rating, Surinam Grass [1, 16]: 0
- Plant response rating, Surinam Grass [1, 17]: 0
- Barnyardgrass plant response rating [2, 15]: 0
- Plant response rating, Barnyardgrass [2, 16]: 40
- Plant response rating, Barnyardgrass [2, 17]: 50
- Barnyardgrass plant response rating [2, 18]: 80
- Cocklebur plant response rating [3, 15]: 40
- Plant response rating, Cocklebur [3, 16]: 70
- Plant response rating, Cocklebur [3, 17]: 80
- Cocklebur plant response rating [3, 18]: 90
- Corn plant response rating (corn (Zea mays); [15]): 0
- Plant response rating, Corn (corn (Zea mays); [16]): 0
- Plant response rating, Corn (corn (Zea mays); [17]): 0
- Corn plant response rating (corn (Zea mays); [18]): 30
- Crabgrass plant response rating [4, 15]: 10
- Plant response rating, Crabgrass [4, 16]: 30
- Plant response rating, Crabgrass [4, 17]: 20
- Crabgrass plant response rating [4, 18]: 70
- Foxtail, Giant plant response rating [5, 15]: 0
- Plant response rating, Foxtail, Giant [5, 16]: 30
- Plant response rating, Foxtail, Giant [5, 17]: 20
- Foxtail, Giant plant response rating [5, 18]: 50
- Lambsquarters plant response rating [6, 15]: 60
- Plant response rating, Lambsquarters [6, 16]: 80
- Plant response rating, Lambsquarters [6, 17]: 90
- Lambsquarters plant response rating [6, 18]: 100
- Morningglory plant response rating [7, 15]: 60
- Plant response rating, Morningglory [7, 16]: 80
- Plant response rating, Morningglory [7, 17]: 70
- Morningglory plant response rating [7, 18]: 90
- Pigweed plant response rating [8, 15]: 50
- Plant response rating, Pigweed [8, 16]: 80
- Plant response rating, Pigweed [8, 17]: 80
- Pigweed plant response rating [8, 18]: 90
- Velvetleaf plant response rating [9, 15]: 20
- Plant response rating, Velvetleaf [9, 16]: 60
- Plant response rating, Velvetleaf [9, 17]: 80
- Velvetleaf plant response rating [9, 18]: 90
- Wheat plant response rating [10, 15]: 0
- Plant response rating, Wheat [10, 16]: 0
- Plant response rating, Wheat [10, 17]: 30
- Wheat plant response rating [10, 18]: 60
- Blackgrass plant response rating [11]: 0
- Plant response rating, Blackgrass [11]: 0
- Oat, Wild plant response rating (wild oat (Avena fatua)): 0
- Plant response rating, Oat, Wild (wild oat (Avena fatua)): 0
- Plant response rating, Barnyardgrass [12]: 0
- Plant response rating, Ducksalad [13]: 20
- Plant response rating, Rice (rice (Oryza sativa)): 20
- Plant response rating, Sedge, Umbrella [14]: 0
